Reference: patent US20240270762A1, “PENICILLIN-BINDING PROTEIN INHIBITORS” (priority 2021, published 2024)
Values after ≈ are worked out from the molar mass of the structure shown. Where two headings read alike, the source gives them in different places.

Key:
[1] = molecular target: T1, PBP1a from Acinetobacter baumannii (ATCC 19606) (Acinetobacter baumannii, UniProt A0ABX6CK30); assay: Bocillin-FL fluorescence polarization competition binding, A. baumannii PBP1a; conditions: fluorescence polarization competition binding assay using Bocillin-FL; read-out: A. baumannii PBP1a Potency
T1 sequence (A0ABX6CK30 1-851): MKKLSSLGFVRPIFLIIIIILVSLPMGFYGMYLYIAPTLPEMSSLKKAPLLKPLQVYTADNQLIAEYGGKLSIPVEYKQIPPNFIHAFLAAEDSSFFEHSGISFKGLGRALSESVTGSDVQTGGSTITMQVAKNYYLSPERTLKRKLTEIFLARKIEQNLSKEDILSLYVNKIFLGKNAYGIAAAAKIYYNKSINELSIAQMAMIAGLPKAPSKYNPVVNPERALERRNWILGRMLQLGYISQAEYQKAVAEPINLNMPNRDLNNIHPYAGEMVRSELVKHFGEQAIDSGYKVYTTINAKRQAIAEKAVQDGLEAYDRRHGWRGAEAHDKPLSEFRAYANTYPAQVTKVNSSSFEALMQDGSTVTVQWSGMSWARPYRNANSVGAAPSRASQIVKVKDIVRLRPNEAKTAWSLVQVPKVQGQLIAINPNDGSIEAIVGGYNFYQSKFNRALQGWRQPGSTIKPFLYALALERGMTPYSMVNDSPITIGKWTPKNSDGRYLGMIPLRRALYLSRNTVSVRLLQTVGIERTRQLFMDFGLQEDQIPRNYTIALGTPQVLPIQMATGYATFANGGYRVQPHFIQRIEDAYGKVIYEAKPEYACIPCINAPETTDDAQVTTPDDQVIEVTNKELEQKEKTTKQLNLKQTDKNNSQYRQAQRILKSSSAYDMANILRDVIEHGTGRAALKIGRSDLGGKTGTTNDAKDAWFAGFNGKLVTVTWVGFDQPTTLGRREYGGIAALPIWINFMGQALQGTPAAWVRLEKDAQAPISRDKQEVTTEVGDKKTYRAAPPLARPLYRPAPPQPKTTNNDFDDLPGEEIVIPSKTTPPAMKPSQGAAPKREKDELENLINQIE
In short: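 Purified PBPs pre-incubated with inhibitor (E. coli PBP3 1.5 μM, 30 min; P. aeruginosa PBP3 0.75 μM, A. baumannii PBP1a 1 μM and PBP3 0.2 μM, 15 min), then Bocillin-FL 0.1 μM (0.05 μM for PBP1a) added; FP read up to 60 min. EC50 = concentration halving bound Bocillin-FL.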

P. aeruginosa ATCC 35151 = assay: microbe, parasite or virus in culture; type: cell-based; conditions: Pseudomonas aeruginosa, ATCC35151, read-out: Minimum inhibitory concentration, P. aeruginosa ATCC 35151
[2] = test system: P. aeruginosa (ΔmexAB-oprM); assay: Broth microdilution MIC in iron-depleted CAMHB (IDM); type: cell-based; conditions: Pseudomonas aeruginosa; iron-depleted CAMHB (IDM); […]; read-out: Minimum inhibitory concentration, P. aeruginosa ΔmexAB-oprM
A. baumannii CDC-0083 = assay: microbe, parasite or virus in culture; type: cell-based; conditions: Acinetobacter baumannii, CDC0083, read-out: MIC, A. baumannii CDC-0083
[3] = test system: B. thailandensis ATCC 700388; assay: microbe, parasite or virus in culture; type: cell-based; conditions: Burkholderia thailandensis, ATCC700388, read-out: Minimum inhibitory concentration (MIC), B. thailandensis ATCC 700388
[4] = test system: N. gonorrhoeae ATCC 49226; assay: Liquid broth MIC in Fastidious broth; conditions: Neisseria gonorrhoeae
N. gonorrhoeae WHO X = assay: Liquid broth MIC in Fastidious broth; conditions: Neisseria gonorrhoeae
N. gonorrhoeae WHO Q = assay: Liquid broth MIC in Fastidious broth; conditions: Neisseria gonorrhoeae
Protocol: Liquid broth-based assays were used for antibacterial testing of PBP inhibitors in Neisseria gonorrhoeae. Briefly, cryo-preserved bacterial cultures of clinical strains were streaked for isolation on Chocolate Agar (72 g/L (2×) GC Agar Base (BD #228950) and 2% (2×) Hemoglobin was autoclaved at 121° C. for 20 minutes to sterilize. Once cooled to ˜50° C. the 2×GC Agar Base and 2× Hemoglobin solutions are combined and 1% IsoVitaleX Enrichment (BD #211876) was added to the solution). Strains were incubated at 36° C. and 5% CO2 to allow growth of colonies, 24 hours before inoculum preparation. 2-fold serial dilutions of test compounds were conducted in a 96 well plate with a final volume of 75 μL per well at 2-fold the final desired concentration in Fastidious broth (Remel #R07664). For preparation of assay inoculum, a direct suspension was prepared by aseptically swabbing 10-15 colonies from agar plates into culture tubes containing 2 mL of fresh sterile saline. After the dilution plates were set up, direct suspensions were then diluted in a cuvette containing sterile saline and the optical density was measured at 600 nm. Inocula were diluted such that 75 μL of this culture in Fastidious broth results in a starting bacterial concentration of 5×10^5 CFU/mL when added to the dilution plates. The plates were incubated for ˜24 hours at 36° C. and 5% CO2.

[5] = ATCC49226, read-out: Minimum Inhibitory Concentration (MIC), N. gonorrhoeae ATCC 49226
[6] = read-out: Minimum Inhibitory Concentration (MIC), N. gonorrhoeae WHO X
[7] = read-out: Minimum Inhibitory Concentration (MIC), N. gonorrhoeae WHO Q
[8] = ATCC49226, read-out: Minimum Inhibitory Concentration, ATCC 49226
[9] = read-out: Minimum Inhibitory Concentration, WHO X
[10] = read-out: Minimum Inhibitory Concentration, WHO Q

Structure (SMILES)	IC50 [1]	MIC (P. aeruginosa ATCC 35151)	MIC [2]	MIC (A. baumannii CDC-0083)	MIC [3]	MIC [4, 5]	MIC (N. gonorrhoeae WHO X; [6])	MIC (N. gonorrhoeae WHO Q; [7])	MIC [4, 8]	MIC (N. gonorrhoeae WHO X; [9])	MIC (N. gonorrhoeae WHO Q; [10])
O=C(O)c1c(F)ccc2c1OB(O)[C@@H](NC(=O)[C@H](NC(=O)N1CCN(CCNC(=O)[C@@H]3CCCN3)C(=O)C1=O)c1cc(F)c(O)c(O)c1Cl)C2 [Example 229, (R)-3-((R)-2-(2-chloro-5-fluoro-3,4-dihydroxyphenyl)-2-(2,3-dioxo-4-(2-((S)-pyrrolidine-2-carboxamido)ethyl)piperazine-1-carboxamido)acetamido)-7-fluoro-2-hydroxy-3,4-dihydro-2H-benzo[e][1,2]oxaborinine-8-carboxylic acid]	> 250 µM	< 1 µg/mL	< 1 µg/mL	< 1 µg/mL	< 1 µg/mL	16 to 32 µg/mL (≈ 22.1 to 44.3 µM)	> 64 µg/mL	16 to 32 µg/mL (≈ 22.1 to 44.3 µM)			
O=C(NCCCS(=O)(=O)N1CCN(C(=O)NC(C(=O)N[C@H]2Cc3ccc(F)c(C(=O)O)c3OB2O)c2cc(F)c(O)c(O)c2Cl)C1=O)c1cccnc1 (stereo partly drawn) [Example 273, (3R)-3-(2-(2-chloro-5-fluoro-3,4-dihydroxyphenyl)-2-(3-((3-(nicotinamido)propyl)sulfonyl)-2-oxoimidazolidine-1-carboxamido)acetamido)-7-fluoro-2-hydroxy-3,4-dihydro-2H-benzo[e][1,2]oxaborinine-8-carboxylic acid]	> 250 µM	< 1 µg/mL	< 1 µg/mL	< 1 µg/mL	2 to 4 µg/mL (≈ 2.56 to 5.12 µM)				16 to 32 µg/mL (≈ 20.5 to 41 µM)	> 64 µg/mL	16 to 32 µg/mL (≈ 20.5 to 41 µM)
O=C(NCCN1CCN(C(=O)NC(C(=O)N[C@H]2Cc3ccc(F)c(C(=O)O)c3OB2O)c2cc(F)c(O)c(O)c2Cl)C(=O)C1=O)c1ccncc1 (stereo partly drawn) [Example 216, (3R)-3-(2-(2-chloro-5-fluoro-3,4-dihydroxyphenyl)-2-(4-(2-(isonicotinamido)ethyl)-2,3-dioxopiperazine-1-carboxamido)acetamido)-7-fluoro-2-hydroxy-3,4-dihydro-2H-benzo[e][1,2]oxaborinine-8-carboxylic acid]	> 250 µM	< 1 µg/mL	< 1 µg/mL	> 128 µg/mL	2 to 4 µg/mL (≈ 2.74 to 5.47 µM)	16 to 32 µg/mL (≈ 21.9 to 43.8 µM)	> 64 µg/mL	16 to 32 µg/mL (≈ 21.9 to 43.8 µM)			
O=C(CN1CCN(C(=O)NC(C(=O)N[C@H]2Cc3ccc(F)c(C(=O)O)c3OB2O)c2cc(F)c(O)c(O)c2Cl)C(=O)C1=O)Nc1ccncc1 (stereo partly drawn) [Example 233, (3R)-3-(2-(2-chloro-5-fluoro-3,4-dihydroxyphenyl)-2-(2,3-dioxo-4-(2-oxo-2-(pyridin-4-ylamino)ethyl)piperazine-1-carboxamido)acetamido)-7-fluoro-2-hydroxy-3,4-dihydro-2H-benzo[e][1,2]oxaborinine-8-carboxylic acid]	> 250 µM	< 1 µg/mL	< 1 µg/mL	< 1 µg/mL	2 to 4 µg/mL (≈ 2.79 to 5.58 µM)	4 to 8 µg/mL (≈ 5.58 to 11.2 µM)	> 64 µg/mL	16 to 32 µg/mL (≈ 22.3 to 44.6 µM)			
O=C(NCCCN1CCN(C(=O)NC(C(=O)N[C@H]2Cc3ccc(F)c(C(=O)O)c3OB2O)c2cc(F)c(O)c(O)c2Cl)C1=O)Nc1cccnc1 (stereo partly drawn) [Example 259, (3R)-3-(2-(2-chloro-5-fluoro-3,4-dihydroxyphenyl)-2-(2-oxo-3-(3-(3-(pyridin-3-yl)ureido)propyl)imidazolidine-1-carboxamido)acetamido)-7-fluoro-2-hydroxy-3,4-dihydro-2H-benzo[e][1,2]oxaborinine-8-carboxylic acid]	> 250 µM	< 1 µg/mL	< 1 µg/mL	< 1 µg/mL	< 1 µg/mL				16 to 32 µg/mL (≈ 21.9 to 43.7 µM)	> 64 µg/mL	16 to 32 µg/mL (≈ 21.9 to 43.7 µM)
CN(CCN1CCN(C(=O)N[C@@H](C(=O)N[C@H]2Cc3ccc(F)c(C(=O)O)c3OB2O)c2cc(F)c(O)c(O)c2Cl)C(=O)C1=O)Cc1ccc(C(N)=O)cc1 [Example 226, (R)-3-((R)-2-(4-(2-((4-carbamoylbenzyl)(methyl)amino)ethyl)-2,3-dioxopiperazine-1-carboxamido)-2-(2-chloro-5-fluoro-3,4-dihydroxyphenyl)acetamido)-7-fluoro-2-hydroxy-3,4-dihydro-2H-benzo[e][1,2]oxaborinine-8-carboxylic acid]	> 250 µM	< 1 µg/mL	< 1 µg/mL	< 1 µg/mL	< 1 µg/mL	16 to 32 µg/mL (≈ 20.7 to 41.4 µM)	> 64 µg/mL	> 64 µg/mL			
O=C(NCCS(=O)(=O)N1CCN(C(=O)NC(C(=O)N[C@H]2Cc3ccc(F)c(C(=O)O)c3OB2O)c2cc(F)c(O)c(O)c2Cl)C1=O)c1ccccc1 (stereo partly drawn) [Example 260, (3R)-3-(2-(3-((2-benzamidoethyl)sulfonyl)-2-oxoimidazolidine-1-carboxamido)-2-(2-chloro-5-fluoro-3,4-dihydroxyphenyl)acetamido)-7-fluoro-2-hydroxy-3,4-dihydro-2H-benzo[e][1,2]oxaborinine-8-carboxylic acid]	> 250 µM	< 1 µg/mL	< 1 µg/mL	< 1 µg/mL	> 128 µg/mL				16 to 32 µg/mL (≈ 20.9 to 41.8 µM)	> 64 µg/mL	16 to 32 µg/mL (≈ 20.9 to 41.8 µM)
O=C(CN1CCN(C(=O)NC(C(=O)N[C@H]2Cc3ccc(F)c(C(=O)O)c3OB2O)c2cc(F)c(O)c(O)c2Cl)C(=O)C1=O)Nc1ccccc1 (stereo partly drawn) [Example 232, (3R)-3-(2-(2-chloro-5-fluoro-3,4-dihydroxyphenyl)-2-(2,3-dioxo-4-(2-oxo-2-(phenylamino)ethyl)piperazine-1-carboxamido)acetamido)-7-fluoro-2-hydroxy-3,4-dihydro-2H-benzo[e][1,2]oxaborinine-8-carboxylic acid]	> 250 µM	< 1 µg/mL	< 1 µg/mL	> 128 µg/mL	< 1 µg/mL	16 to 32 µg/mL (≈ 22.4 to 44.7 µM)	> 64 µg/mL	> 64 µg/mL			
O=C(NCCN1CCN(C(=O)NC(C(=O)N[C@H]2Cc3ccc(F)c(C(=O)O)c3OB2O)c2cc(F)c(O)c(O)c2Cl)C(=O)C1=O)c1cccc(O)c1 (stereo partly drawn) [Example 215, (3R)-3-(2-(2-chloro-5-fluoro-3,4-dihydroxyphenyl)-2-(4-(2-(3-hydroxybenzamido)ethyl)-2,3-dioxopiperazine-1-carboxamido)acetamido)-7-fluoro-2-hydroxy-3,4-dihydro-2H-benzo[e][1,2]oxaborinine-8-carboxylic acid]	> 250 µM	< 1 µg/mL	< 1 µg/mL	> 128 µg/mL	8 to 16 µg/mL (≈ 10.7 to 21.5 µM)	16 to 32 µg/mL (≈ 21.5 to 42.9 µM)	> 64 µg/mL	> 64 µg/mL			
O=C(NCCCN1CCN(C(=O)NC(C(=O)N[C@H]2Cc3ccc(F)c(C(=O)O)c3OB2O)c2cc(F)c(O)c(O)c2Cl)C(=O)C1=O)Nc1ccncc1 (stereo partly drawn) [Example 228, (3R)-3-(2-(2-chloro-5-fluoro-3,4-dihydroxyphenyl)-2-(2,3-dioxo-4-(3-(3-(pyridin-4-yl)ureido)propyl)piperazine-1-carboxamido)acetamido)-7-fluoro-2-hydroxy-3,4-dihydro-2H-benzo[e][1,2]oxaborinine-8-carboxylic acid]	> 250 µM	< 1 µg/mL	< 1 µg/mL	< 1 µg/mL	< 1 µg/mL	> 64 µg/mL	> 64 µg/mL	> 64 µg/mL			
